The target of one test is JAK1 (Homo sapiens, UniProt P23458). The experiment in a line: JAK kinase inhibitor activity detection (ULight-JAK-1 substrate, Eu-labeled anti-phosphotyrosine antibody), JAK1. Type of test: biochemical. The conditions noted are these: JAK1 10 nM, substrate 50 nM, ATP 40 uM, 2 h room temperature. The protocol:
(§1) Activity Detection of Small Molecule Inhibitors of JAK Kinase
(§2) • (1) kinase reaction buffer • Prepare the kinase reaction buffer with the following components: 50 mM HEPES, pH 7.5, 1 mM EGTA, 10 mM MgCl2, 2 mM DTT, 0.01% Tween20 • (2) 1× detection buffer • To prepare detection buffer, dilute 10× detection buffer to 1× with deionized water 9:1 • (3) 4× kinase solution • Dilute JAK to 4× final concentration by JAK reaction buffer (JAK1: 40 nM, JAK2: 0.5 nM) • (4) 4× substrate solution • Dilute ULight™-JAK-1 (Tyr1023) substrate to 200 nM by kinase reaction buffer (final concentration: 50 nM) • (5) 4×ATP solution • Dilute ATP to 4× final concentration by kinase reaction buffer (JAK1: 160 μM, JAK2: 40 μM) • (6) 4× compound testing solution • DMSO dissolves the testing compound into 10 mM stock solution, then prepared to the desired concentration with 3-fold serial dilution, and 10 concentration points were set for each compound. Besides, the final concentration range of the testing compound is: 10 μM-0.5 nM • (7) 4× enzyme reaction termination liquid • 1× test buffer dissolves EDTA to 40 mM (EDTA final concentration: 10 mM) • (8) 4× antibody detection solution • 1× test buffer dilutes Eu labeled antibody (anti-phosphotyrosine (PT66)) to 8 nM (antibody final concentration: 2 nM) 2. Experimental Process • (1) Successively add 2.5 μL 4×JAK solution, and 2.5 μL of diluted 4× test compound solution in different concentrations to the 384 microporous plate, and set 2 multi-wells for each concentration. Meanwhile, set enzyme solution blank control group and negative control group (DMSO group). • (2) Shake the 384-hole plate, mix enzymes and compounds, centrifuge at 1000 rpm for 1 minute, and incubate at room temperature for 60 minutes • (3) Add 2.5 μL of 4× substrate solution to a 384-hole plate and centrifuge at 1000 rpm for 1 min • (4) Add 2.5 μL of 4×ATP solution to the 384 multi-well plate and centrifuge at 1000 rpm for 1 minute to initiate the enzyme reaction. • (5) JAK1 reacts at room temperature for 2 h, and JAK2 react at room temperature for 1 h. • (6) The final concentrations of each group of the JAK1 reaction are: JAK1: 10 nM, substrate: 50 nM, ATP: 40 uM, and the final concentration range of the test compound is: 10 μM-0.5 nM • The final concentrations of each group of the JAK2 reaction are: JAK2: 0.125 nM, substrate: 50 nM, ATP: 10 μM, and the final concentration range of test compounds is: 10 μM-0.5 nM • (7) After the enzyme reaction, add 5 μL of 4× enzyme reaction stop solution to each well of the 384-well plate with 1000 rpm, centrifuge for 1 minute, and incubate at room temperature for 5 min. • (8) Add 5 μL of 4× detection antibody solution to each well of a 384-well plate (final concentration of detection antibody is 2 nM) with 1000 rpm, centrifuge for 1 minute, and incubate at room temperature for 1 h. • (10) After antibody incubation, measure the signal value of each well on an Envision plate reader 3. Data Analysis • (1) Taking the enzyme solution blank control group as 100% inhibition rate and the negative control group (DMSO group) as 0% inhibition rate, calculate the percentage inhibition rate corresponding to each concentration of the tested compounds • (2) In GraphPad Prism software, nonlinear regression analysis is performed on the concentration logarithm of the test compound and the corresponding percentage inhibition rate to obtain the half-inhibitory concentration (IC50) of the test compound.

Another test addresses JAK2 (Homo sapiens, UniProt O60674). The experiment in a line: JAK kinase inhibitor activity detection (ULight-JAK-1 substrate, Eu-labeled anti-phosphotyrosine antibody), JAK2. The conditions noted are these: JAK2 0.125 nM, substrate 50 nM, ATP 10 μM, 1 h room temperature. Type of test: biochemical. The protocol:
as §1, §2

The results in this text go back to patent publication US12478620B2, “Cyano-substituted cyclic hydrazine derivative and application thereof” (E-nitiate Biopharmaceuticals (Hangzhou) Co., Ltd, priority 2019, dated 2025).

A word on the IC50: it is the concentration needed to halve the response being measured.

JAK2, sequence (O60674 whole entry, species assumed): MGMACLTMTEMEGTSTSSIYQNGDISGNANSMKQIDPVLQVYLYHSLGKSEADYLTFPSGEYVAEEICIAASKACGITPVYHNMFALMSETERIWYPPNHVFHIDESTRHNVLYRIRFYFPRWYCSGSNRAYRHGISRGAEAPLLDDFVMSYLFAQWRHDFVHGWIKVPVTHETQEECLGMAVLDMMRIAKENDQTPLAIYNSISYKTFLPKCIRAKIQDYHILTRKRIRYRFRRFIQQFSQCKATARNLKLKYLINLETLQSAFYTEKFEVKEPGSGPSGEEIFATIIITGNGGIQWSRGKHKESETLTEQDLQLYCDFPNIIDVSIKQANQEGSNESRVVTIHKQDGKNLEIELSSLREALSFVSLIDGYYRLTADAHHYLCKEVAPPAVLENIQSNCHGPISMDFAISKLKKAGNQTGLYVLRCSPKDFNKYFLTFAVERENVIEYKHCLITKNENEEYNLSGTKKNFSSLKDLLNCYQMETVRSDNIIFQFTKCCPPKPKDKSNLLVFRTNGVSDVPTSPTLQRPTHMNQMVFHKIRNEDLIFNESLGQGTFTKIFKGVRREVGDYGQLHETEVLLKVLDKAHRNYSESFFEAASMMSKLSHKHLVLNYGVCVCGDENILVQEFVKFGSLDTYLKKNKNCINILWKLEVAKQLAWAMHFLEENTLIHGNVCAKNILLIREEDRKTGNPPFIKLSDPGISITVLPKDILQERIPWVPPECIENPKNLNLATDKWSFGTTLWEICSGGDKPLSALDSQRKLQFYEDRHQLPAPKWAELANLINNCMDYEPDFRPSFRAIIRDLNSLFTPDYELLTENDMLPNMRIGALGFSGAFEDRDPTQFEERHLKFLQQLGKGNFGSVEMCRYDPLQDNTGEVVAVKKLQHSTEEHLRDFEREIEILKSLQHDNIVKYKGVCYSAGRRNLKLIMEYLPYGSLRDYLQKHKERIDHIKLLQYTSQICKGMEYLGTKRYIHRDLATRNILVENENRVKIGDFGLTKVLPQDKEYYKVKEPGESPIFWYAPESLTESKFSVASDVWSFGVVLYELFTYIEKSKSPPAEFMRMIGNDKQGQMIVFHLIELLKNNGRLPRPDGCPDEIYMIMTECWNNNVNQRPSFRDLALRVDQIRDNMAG
JAK1, sequence (P23458 whole entry, species assumed): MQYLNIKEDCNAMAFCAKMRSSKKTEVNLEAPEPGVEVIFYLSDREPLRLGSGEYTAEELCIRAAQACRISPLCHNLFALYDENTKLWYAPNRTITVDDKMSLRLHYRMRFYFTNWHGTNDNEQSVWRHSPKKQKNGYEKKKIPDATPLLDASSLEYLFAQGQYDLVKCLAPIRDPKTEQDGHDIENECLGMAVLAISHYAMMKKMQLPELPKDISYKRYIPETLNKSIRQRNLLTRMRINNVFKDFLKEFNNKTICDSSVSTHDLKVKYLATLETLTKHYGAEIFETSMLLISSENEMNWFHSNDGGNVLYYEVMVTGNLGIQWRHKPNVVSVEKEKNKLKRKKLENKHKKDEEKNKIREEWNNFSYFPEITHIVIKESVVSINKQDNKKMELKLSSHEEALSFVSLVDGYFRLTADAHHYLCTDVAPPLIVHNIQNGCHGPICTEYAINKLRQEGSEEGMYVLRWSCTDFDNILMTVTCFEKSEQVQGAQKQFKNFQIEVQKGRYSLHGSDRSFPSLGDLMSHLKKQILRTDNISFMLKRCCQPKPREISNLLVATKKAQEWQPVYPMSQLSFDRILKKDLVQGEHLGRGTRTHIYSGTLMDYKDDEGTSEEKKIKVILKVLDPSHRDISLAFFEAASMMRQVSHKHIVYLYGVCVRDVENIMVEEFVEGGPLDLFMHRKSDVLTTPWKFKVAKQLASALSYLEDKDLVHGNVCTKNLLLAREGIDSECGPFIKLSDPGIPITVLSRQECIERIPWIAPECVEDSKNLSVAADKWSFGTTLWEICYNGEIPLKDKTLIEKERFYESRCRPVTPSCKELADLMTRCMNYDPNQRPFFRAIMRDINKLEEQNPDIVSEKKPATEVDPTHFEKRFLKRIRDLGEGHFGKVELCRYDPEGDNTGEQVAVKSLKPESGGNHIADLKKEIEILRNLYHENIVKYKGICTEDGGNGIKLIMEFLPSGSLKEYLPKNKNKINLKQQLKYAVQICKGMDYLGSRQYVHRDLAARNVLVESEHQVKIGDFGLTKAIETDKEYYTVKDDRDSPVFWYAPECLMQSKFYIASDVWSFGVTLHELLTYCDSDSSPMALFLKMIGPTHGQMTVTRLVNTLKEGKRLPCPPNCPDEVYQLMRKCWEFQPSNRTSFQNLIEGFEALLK

Turning to `C[C@@H](O)c1nc2cnc3[nH]ccc3c2n1N1CCCC(CC#N)CC1` (stereo partly drawn) [Example 27, 2-(1-(2-((R)-1-hydroxyethyl)imidazo[4,5-d]pyrrolo[2,3-b]pyridin-1(6H)-yl)-6-azepan-4-yl)acetonitrile], the 50% inhibitory concentration (IC50) against JAK1 came to 1.7 nM; at JAK2 it was 2.3 nM.

In the case of `CCC1CN(C(=O)CC#N)CN1n1cnc2cnc3[nH]ccc3c21` (stereo not shown) [Example 28], the IC50 at JAK1 is 3.5 nM; against JAK2 it was 13.1 nM.

In the case of `CCC1CN(CCC#N)CN1n1cnc2cnc3[nH]ccc3c21` (stereo not shown) [Example 29, 3-(4-ethyl-3-(imidazo[4,5-d]pyrrolo[2,3-b]pyridine-1(6H)-yl)imidazolidine-1-yl)propionitrile], the half-maximal inhibitory concentration (IC50) against JAK1 stood at 13.9 nM; at JAK2 it was 27.5 nM.

As to `CC1CN(C(=O)CC#N)CN1n1cnc2cnc3[nH]ccc3c21` (stereo not shown) [Example 30, 3-(4-methyl-3-(imidazo[4,5-d]pyrrolo[2,3-b]pyridine-1(6H)-yl)imidazoline-1-yl)-3-Oxopropionitrile], the figures for the concentration for half-maximal inhibition (IC50) against JAK1 and against JAK2 were 2.8 nM and 28.1 nM, respectively.

As for `N#CCC(=O)N1CCN(n2cnc3cnc4[nH]ccc4c32)C1` [Example 31, 3-(3-(imidazo[4,5-d]pyrrolo[2,3-b]pyridine-1(6H)-yl)imidazoline-1-yl)-3-oxopropionitrile], the results for the IC50 at JAK1 and on JAK2 were 6.9 nM and 71.8 nM, respectively.

For `CC[C@@H]1CN(C(=O)CC#N)CN1n1cnc2cnc3[nH]ccc3c21` [Example 32, (R)-3-(4-ethyl-3-(imidazo[4,5-d]pyrrolo[2,3-b]pyridine-1(6H)-yl)imidazoline-1-yl)-3-oxopropionitrile], the half-maximal inhibitory concentration (IC50) against JAK1 was 6.8 nM; at JAK2, 15.3 nM.

On to `N#CCC(=O)NC1CCN(n2cnc3cnc4[nH]ccc4c32)C1` (stereo not shown) [Example 33, 2-cyano-N-(1-(imidazo[4,5-d]pyrrolo[2,3-b]pyridine-1(6H)-yl)pyrrolidine-3-yl)acetamide], for which the results for the IC50 against JAK1 and against JAK2 were 11.2 nM and 29.1 nM, respectively.

As for `N#CCNC1CCN(n2cnc3cnc4[nH]ccc4c32)C1` (stereo not shown) [Example 34, 2-((1-(imidazo[4,5-d]pyrrolo[2,3-b]pyridine-1(6H)-yl)pyrrolidine-3-yl)amino)acetonitrile], the IC50 on JAK1 came to 73.8 nM; against JAK2 it was 51.7 nM.

`CC[C@@H]1C[C@H](C#N)CN1n1cnc2cnc3[nH]ccc3c21` [Example 35, (3S,5R)-5-ethyl-1-(imidazo[4,5-d]pyrrole[2,3-b]pyridine(6H)-yl)pyrrolidine-3-carbonitrile]: the IC50 amounted to 9.5 nM at JAK1 and 61.3 nM against JAK2.

Regarding `CC[C@@H]1C[C@@H](CC#N)CN1n1cnc2cnc3[nH]ccc3c21` [Example 36-1, 2-((3S,5R)-5-ethyl-1-(imidazo[4,5-d]pyrrolo[2,3-b]pyridine-1(6H)-yl)pyrrolidin-3-yl) acetonitrile], the values for the 50% inhibitory concentration (IC50) on JAK1 and against JAK2 were 6.8 nM and 23.5 nM, respectively.

For `CC[C@@H]1C[C@H](CC#N)CN1n1cnc2cnc3[nH]ccc3c21` [Example 36-2, 2-((3R,5R)-5-ethyl-1-(imidazo[4,5-d]pyrrolo[2,3-b]pyridine-1(6H)-yl)pyrrolidin-3-yl) acetonitrile], the results for the 50% inhibitory concentration (IC50) against JAK1 and at JAK2 were 43.6 nM and 127 nM, respectively.
